Format in all cases: cell-based
The target of data set [1] is T1, Nuclear factor erythroid 2-related factor 2 (Homo sapiens) (UniProt Q16236).
T1 sequence (whole entry): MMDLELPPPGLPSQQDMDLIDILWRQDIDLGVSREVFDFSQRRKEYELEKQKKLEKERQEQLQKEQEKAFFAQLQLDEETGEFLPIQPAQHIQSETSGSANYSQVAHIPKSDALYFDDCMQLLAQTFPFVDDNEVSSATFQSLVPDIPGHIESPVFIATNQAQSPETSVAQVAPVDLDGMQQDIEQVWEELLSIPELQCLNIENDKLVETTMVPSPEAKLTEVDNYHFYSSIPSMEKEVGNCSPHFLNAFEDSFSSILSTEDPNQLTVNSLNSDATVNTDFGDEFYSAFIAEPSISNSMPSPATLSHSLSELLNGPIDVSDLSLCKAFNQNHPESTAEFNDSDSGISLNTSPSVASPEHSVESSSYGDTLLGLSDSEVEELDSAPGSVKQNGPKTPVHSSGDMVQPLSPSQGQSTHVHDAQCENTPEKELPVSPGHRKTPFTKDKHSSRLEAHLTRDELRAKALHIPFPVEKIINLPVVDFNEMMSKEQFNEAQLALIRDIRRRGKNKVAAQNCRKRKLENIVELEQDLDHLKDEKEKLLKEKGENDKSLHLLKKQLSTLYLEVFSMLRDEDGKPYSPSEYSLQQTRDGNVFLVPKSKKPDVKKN
As to the kind of experiment: Activation of Nrf2 in human HepG2-ARE-C8 cells assessed as upregulation of ARE level at 40 uM after 12 hrs by luciferase reporter gene assay relative to control.

Data set [2] deals with T1, Nuclear factor erythroid 2-related factor 2 (Homo sapiens). Description: Activation of Nrf2 in human HepG2-ARE-C8 cells assessed as upregulation of ARE level at 80 uM after 12 hrs by luciferase reporter gene assay relative to control. For orientation: In a reporter assay the amount or activity of a reporter protein is the signal.
The target is the same in data set [3]. As to the kind of experiment: Activation of Nrf2 in human HepG2-ARE-C8 cells assessed as upregulation of ARE level at 160 uM after 12 hrs by luciferase reporter gene assay relative to control.
The test system of a further data set is HCT-116. As to the kind of experiment: Cytotoxicity against human HCT116 cells assessed as reduction of cell proliferation at 80 uM after 24 hrs by MTT assay. The following applies: hct-116, 24 h.
Data set [4] has as its target T1, Nuclear factor erythroid 2-related factor 2 (Homo sapiens). Description: Activation of Nrf2 in human HepG2-ARE-C8 cells assessed as upregulation of ARE level at 20 uM after 12 hrs by luciferase reporter gene assay relative to control.
For data set [5] the target is unchanged. Description: Activation of Nrf2 in human HepG2-ARE-C8 cells assessed as upregulation of ARE level at 0.2 uM after 12 hrs by luciferase reporter gene assay relative to control.
For data set [6] the target is unchanged. Description: Activation of Nrf2 in human HepG2-ARE-C8 cells assessed as upregulation of ARE level at 0.02 uM after 12 hrs by luciferase reporter gene assay relative to control.
The target is the same in data set [7]. Description: Activation of Nrf2 in human HepG2-ARE-C8 cells assessed as upregulation of ARE level at 2 uM after 12 hrs by luciferase reporter gene assay relative to control.

For `N#Cc1ccccc1-c1nc(-c2ccc3nc[nH]c3c2)no1`, the fold change (FC) in data set [1] is 1.32; in data set [2], 1.39; in data set [3], 2.09; in data set [4], 1.33; in data set [5] it was 1.48; in data set [6], 1.36. Further, the fold change (FC) in data set [7] amounted to 2.46. Besides, in the data set with HCT-116, the Activity result is reported as “Non-toxic”.
Consider `COc1ccc(-c2nc(-c3ccc4nc[nH]c4c3)no2)c(OC)c1`, for which the fold change (FC) is 11.6 in data set [1]; 4.35 in data set [2]; 1.46 in data set [3]; 8.57 in data set [4]; 1.59 in data set [5]; 1.25 in data set [6]. In data set [7], the fold change (FC) worked out at 2.84. The Activity result in the data set with HCT-116 is given as “Non-toxic”.
For the molecule `c1ccc(-c2ccc(-c3nc(-c4ccc5nc[nH]c5c4)no3)cc2)cc1`, the fold change (FC) in data set [1] was found to be 10.7; in data set [2], 15; in data set [3], 11; in data set [4], 2; in data set [5], 1.54; in data set [6], 1.18. In addition, the fold change (FC) in data set [7] was 1.52. The Activity entry in the data set on HCT-116 is on record as “Non-toxic”.
Take `COc1ccccc1-c1nc(-c2ccc3nc[nH]c3c2)no1`: the fold change (FC) in data set [1] stood at 10.7; in data set [2], 8.46; in data set [3] it was 5.85; in data set [4], 5.96; in data set [5], 1.39; in data set [6], 1.24. Further, in data set [7], the fold change (FC) came out at 1.62. Further, the Activity entry in the data set on HCT-116 was “Non-toxic”.
For `N#Cc1ccc(-c2nc(-c3ccc4nc[nH]c4c3)no2)cc1`, the fold change (FC) in data set [1] is 11.9; in data set [2], 10; in data set [3] it was 12.7; in data set [4], 8.12; in data set [5], 1.25; in data set [6], 1.22. For the same molecule, the fold change (FC) in data set [7] is 1.35. Also, in the data set with HCT-116, the Activity entry is on record as “Non-toxic”.
For the molecule `Cn1cnc2ccc(-c3noc(-c4ccccc4)n3)cc21`, the fold change (FC) amounted to 8.41 in data set [1]; 3.33 in data set [2]; 1.75 in data set [3]; 17.4 in data set [4]; 3.41 in data set [5]; 2.03 in data set [6]. Moreover, the fold change (FC) in data set [7] is 18.2. In addition, the Activity entry in the data set on HCT-116 is listed as “Non-toxic”.
Take `COc1cccc(-c2nc(-c3ccc4nc[nH]c4c3)no2)c1`: the fold change (FC) was 14.4 in data set [1]; 12.4 in data set [2]; 8.38 in data set [3]; 12.4 in data set [4]; 1.95 in data set [5]; 1.79 in data set [6]. Moreover, the fold change (FC) in data set [7] is 3.16. Further, the Activity entry in the data set with HCT-116 was “Non-toxic”.
On to `COc1ccc(-c2nc(-c3ccc4nc[nH]c4c3)no2)cc1`, for which the fold change (FC) in data set [1] came to 13; in data set [2], 4.92; in data set [3], 5.52; in data set [4], 9.84; in data set [5] it was 2.72; in data set [6], 1.43. Besides, in data set [7], the fold change (FC) is 3.27. Also, the Activity result in the data set with HCT-116 is recorded as “Non-toxic”.
With `Cc1cccc(-c2nc(-c3ccc4nc[nH]c4c3)no2)c1`, the fold change (FC) in data set [1] was 10.4; in data set [2] it was 17.3; in data set [3], 8.99; in data set [4] it was 14.2; in data set [5] it was 1.94; in data set [6], 1.44. Further, the fold change (FC) in data set [7] was found to be 4.84. Further, the Activity entry in the data set with HCT-116 is on record as “Non-toxic”.
For the molecule `Oc1ccccc1-c1nc(-c2ccc3nc[nH]c3c2)no1`, the fold change (FC) in data set [1] was 2.75; in data set [2], 1.34; in data set [3] it was 1.17; in data set [4], 2.67; in data set [5], 1.54; in data set [6] it was 1.72. In addition, the fold change (FC) in data set [7] was 1.53. In addition, in the data set with HCT-116, the Activity result is on record as “Non-toxic”.
As for `FC(F)(F)c1cccc(-c2nc(-c3ccc4nc[nH]c4c3)no2)c1`, the fold change (FC) in data set [1] is 5.65; in data set [2], 3.45; in data set [3], 2.94; in data set [4], 10.5; in data set [5], 8.04; in data set [6], 2.56. For the same molecule, the fold change (FC) in data set [7] was found to be 13.9. In the data set with HCT-116, the Activity entry was “Non-toxic”.
With `N#Cc1cccc(-c2nc(-c3ccc4nc[nH]c4c3)no2)c1`, the fold change (FC) in data set [1] is 0.91; in data set [2] it was 3.16; in data set [3] it was 8.05; in data set [4], 0.87; in data set [5], 1.36; in data set [6] it was 1.26. Besides, the fold change (FC) in data set [7] worked out at 1.42. In the data set on HCT-116, the Activity entry was “Non-toxic”.
With `COc1ccc(OC)c(-c2nc(-c3ccc4nc[nH]c4c3)no2)c1`, the fold change (FC) amounted to 4.24 in data set [1]; 3.7 in data set [2]; 5.2 in data set [3]; 4.48 in data set [4]; 2.96 in data set [5]; 1.7 in data set [6]. For the same molecule, in data set [7], the fold change (FC) was determined as 3.21. For the same molecule, the Activity result in the data set on HCT-116 was “Non-toxic”.
As for `Cc1ccc(-c2nc(-c3ccc4nc[nH]c4c3)no2)cc1`, the fold change (FC) came to 16.6 in data set [1]; 12.7 in data set [2]; 9.22 in data set [3]; 20.6 in data set [4]; 3.29 in data set [5]; 2.11 in data set [6]. In data set [7], the fold change (FC) is 7.78. In the data set on HCT-116, the Activity entry is on record as “Non-toxic”.
Consider `COc1cc(-c2nc(-c3ccc4nc[nH]c4c3)no2)cc(OC)c1OC`, for which the fold change (FC) in data set [1] was 3.24; in data set [2], 13.9; in data set [3], 22.5; in data set [4], 3.23; in data set [5], 2.24; in data set [6] it was 1.31. The fold change (FC) in data set [7] amounted to 2.41. Besides, the Activity result in the data set with HCT-116 was “Non-toxic”.
Regarding `c1cc2ccc(-c3nc(-c4ccc5nc[nH]c5c4)no3)cc2[nH]1`, the fold change (FC) in data set [1] was 11; in data set [2], 11.6; in data set [3], 8.88; in data set [4], 10.2; in data set [5] it was 1.5; in data set [6], 1.22. In data set [7], the fold change (FC) was 1.77. Also, the Activity result in the data set with HCT-116 was “Non-toxic”.
In the case of `CC(C)(C)C1=CC(=O)C=CC1=O`, the fold change (FC) came out at 2.14 in data set [1]; 5.27 in data set [2]; 8.46 in data set [3]; 1.41 in data set [4]; 1.25 in data set [5]; 1.18 in data set [6]. Also, the fold change (FC) in data set [7] came to 1.24.
As to `COC(=O)/C=C/C(=O)OC`, the fold change (FC) was 2.97 in data set [1]; 1.65 in data set [4]; 1 in data set [5]; 0.82 in data set [6]; 1.1 in data set [7].

The values are drawn from ChEMBL document CHEMBL3585308, “Discovery and Modification of in Vivo Active Nrf2 Activators with 1,2,4-Oxadiazole Core: Hits Identification and Structure-Activity Relationship Study” (J Med Chem, 2015).
